Measured values taken from PubChem BioAssay AID1963974 (Molecular Pharmacology Branch, DTP, NCI, 2024).
“And” between values parts separate entries of the source, which are not always exact repeats. Equal values may be shown once.

System: 648629-189-R-J1-PDC spheroids with HUVEC/MSC, viability
Assay: Anticancer human tumor 648629-189-R-J1-PDC patient-derived bladder carcinoma cell line growth inhibition [PI3K]
Conditions: for viability, T/C: stronger effect = lower value
Source text: Combinatorial screen of targeted agents with the PI3K inhibitors inavolisib, alpelisib, duvelisib, and copanlisib in multi-cell type tumor spheroids
A high-throughput screen of multi-cell type tumor spheroids was designed to identify active combinations of targeted small molecules and PI3K pathway inhibitors. Complex spheroids include a stromal component modeled by human endothelial cells (HUVEC) and fibroblasts modeled by human mesenchymal stem cells (MSCs). The concentration ranges selected for each drug and investigational agent were based upon clinically achievable concentrations if the clinical Cmax of the agent was known.
Compounds. The drugs and investigational agents: inavolisib (NSC800729), alpelisib (NSC765974), duvelisib (NSC772469), copanlisib (NSC816437), ipatasertib (NSC767898), afuresertib (NSC778305), talazoparib (NSC767125), sapanisertib (NSC764658), selumetinib (NSC741078), tovorafenib (DAY101, NSC766906), vemurafenib (NSC761431), ravoxertinib (NSC781343), sotorasib (NSC818433), MRTX1133 (NSC 836407), abemaciclib (NSC 768073), palbociclib (NSC758247), venetoclax (NSC 766270), SY5609 (NSC837396), enzalutamide (NSC755605), and darolutamide (NSC825331), were obtained from the National Cancer Institute (NCI) Developmental Therapeutics Program Chemical Repository. The FDA-approved anticancer drug set is available from the NCI Developmental Therapeutics Program. […] The stock solutions were prepared in dimethyl sulfoxide (DMSO, Sigma-Aldrich, St. Louis, MO, cat. D2650) at 800-fold the tested concentration and stored at -70 degrees C prior to their use. All drugs and investigational agents were tested over a range starting from a high concentration at or near the clinical Cmax and decreasing in half-log increments. If the clinical Cmax for an agent had not been determined, the highest concentration tested was 10 microM.
Cell Culture. All cells were maintained in an incubator at 37 degrees C and 5% CO2 with 95% humidity. The PDC lines were cultured according to standard operating procedures established by the NCI PDMR (https://pdmr.cancer.gov/sops/default.htm). All PDCs were thawed and cultured in Matrigel-coated flasks prepared with a working solution of 1X Ham's F-12 nutrient mix, without supplementation (Invitrogen, Waltham, MA, cat. 11765054), 100 U/mL penicillin-streptomycin (Invitrogen, cat. 15140122), and 2.5% Matrigel (Corning Inc., Corning, NY, cat. 354248) for the first three passages. The 354836-022-R-J1-PDC, 475296-252-R-J1-PDC, and 997726-040-R-J2-PDC lines were cultured in 6A media, which includes advanced DMEM/F-12 (Thermo Fisher Scientific, cat. 12634028), 10 mM HEPES (Thermo Fisher Scientific, cat. 15630080), 1X GlutaMAX supplement (Thermo Fisher Scientific, cat. 35050061), 0.1 mg/mL primocin (InvivoGen, San Diego, CA, cat. ant-pm-2), 10% defined fetal bovine serum, heat inactivated (HyClone Laboratories Inc., Logan, UT, cat. SH30070.03HI), 50% L-WRN conditioned media (ATCC, cat. CRL-3276), 1.25 mM N-Acetyl-L-cysteine (Sigma-Aldrich, cat. A9165), 10 mM nicotinamide (Sigma-Aldrich, cat. N0636), 1X B-27 supplement (Thermo Fisher Scientific, cat. 17504044), 1X N-2 supplement (Thermo Fisher Scientific, cat. 17502048), and 10 microM Y-27632 dihydrochloride (Tocris Bioscience, Bristol, United Kingdom, cat. 1254). The 624824-186-R-J2-PDC line was cultured in 6C/Colon 1B media, which includes all 6A media components plus 50 ng/mL human EGF recombinant protein (Thermo Fisher Scientific, cat. PHG0311). […]
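Further: spheroids exposed to agents for seven days before reading.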
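Wherever viability, T/C is given: percent of vehicle control luminescence where 100% = DMSO treated spheroids.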

**Q.** `CC(=O)c1c(C)c2cnc(Nc3ccc(N4CCNCC4)cn3)nc2n(C2CCCC2)c1=O` was tested. Which viability, T/C (compound 0.000316 µM) did it give?
**A.** The viability, T/C was 101% [middle of 4 runs].

**Q.** What about the viability, T/C (compound 0.001 µM) of the same compound?
**A.** The viability, T/C was 102% [middle of 4 runs].

**Q.** And the viability, T/C (compound 0.00316 µM)?
**A.** Its viability, T/C is 115% [middle of 4 runs].

**Q.** What about the viability, T/C (compound 0.01 µM) of the same compound?
**A.** The viability, T/C was 97.2% [middle of 4 runs].

**Q.** What about the viability, T/C (compound 0.0316 µM) of the same compound?
**A.** Its viability, T/C is 100% [middle of 4 runs].

**Q.** What about the viability, T/C (compound 0.1 µM) of the same compound?
**A.** The viability, T/C was 111% [middle of 4 runs].

**Q.** And the IC50 (curve of compound)?
**A.** Its IC50 is > 0.1 µM.

**Q.** Which results are given for `CC(C)NCC(C(=O)N1CCN(c2ncnc3c2C(C)CC3O)CC1)c1ccc(Cl)cc1` (stereo unspecified)?
**A.** viability, T/C (compound 0.0316 µM): 95.2% and 106% (2×) and 98.2%; viability, T/C (compound 0.316 µM): 86% [middle of 4 runs]; viability, T/C (compound 1 µM): 48% [middle of 4 runs]; viability, T/C (compound 3.16 µM): 29.7% [middle of 4 runs]; viability, T/C (compound 10 µM): 16.6% and 15.3% (2×) and 14.4%; IC50 (curve of compound): 1.06 µM [middle of 4 runs]

**Q.** `CC(C)n1nc(-c2ccc3oc(N)nc3c2)c2c(N)ncnc21` was tested. Which viability, T/C (compound 0.000316 µM) did it give?
**A.** Its viability, T/C is 111% [middle of 4 runs].

**Q.** And the viability, T/C (compound 0.001 µM)?
**A.** The viability, T/C was 102% [middle of 4 runs].

**Q.** What about the viability, T/C (compound 0.00316 µM) of the same compound?
**A.** The viability, T/C was 97.9% [middle of 4 runs].

**Q.** And the viability, T/C (compound 0.01 µM)?
**A.** Its viability, T/C is 89.7% [middle of 4 runs].

**Q.** And the viability, T/C (compound 0.0316 µM)?
**A.** Its viability, T/C is 78.6% [middle of 4 runs].

**Q.** What about the viability, T/C (compound 0.1 µM) of the same compound?
**A.** Its viability, T/C is 34% [middle of 4 runs].

**Q.** What about the IC50 (curve of compound) of the same compound?
**A.** The IC50 was 63.4 nM [middle of 4 runs].

**Q.** For `CC(Cn1ccc(-c2ccc(C#N)c(Cl)c2)n1)NC(=O)c1cc(C(C)O)[nH]n1` (stereo unspecified), which viability, T/C (compound 0.0316 µM) is on record?
**A.** The viability, T/C was 108% [middle of 4 runs].

**Q.** What about the viability, T/C (compound 0.1 µM) of the same compound?
**A.** Its viability, T/C is 94.8% [middle of 4 runs].

**Q.** And the viability, T/C (compound 0.316 µM)?
**A.** The viability, T/C was 105% [middle of 4 runs].

**Q.** And the viability, T/C (compound 1 µM)?
**A.** The viability, T/C was 104% [middle of 4 runs].

**Q.** And the viability, T/C (compound 3.16 µM)?
**A.** The viability, T/C was 88.8% [middle of 4 runs].

**Q.** And the viability, T/C (compound 10 µM)?
**A.** Its viability, T/C is 81.1% [middle of 4 runs].

**Q.** And the IC50 (curve of compound)?
**A.** The IC50 was > 10 µM.

**Q.** Which results are given for `CC(Nc1ccc2c(c1)OCCn1cc(N3C(=O)OCC3C(F)F)nc1-2)C(N)=O` (stereo unspecified)?
**A.** viability, T/C (compound 0.00316 µM): 104% [middle of 8 runs]; viability, T/C (compound 0.01 µM): 99.7% [middle of 8 runs]; viability, T/C (compound 0.0316 µM): 106% [middle of 8 runs]; viability, T/C (compound 0.1 µM): 95.2% [middle of 8 runs]; viability, T/C (compound 0.316 µM): 81.1% [middle of 8 runs]; viability, T/C (compound 1 µM): 73.8% [middle of 8 runs]; IC50 (compound alone, run of 04/24/2023): > 1 µM

**Q.** `CC(Nc1ncnc2nc[nH]c12)c1cc2cccc(Cl)c2c(=O)n1-c1ccccc1` (stereo unspecified) was tested. Which viability, T/C (compound 0.0316 µM) did it give?
**A.** The viability, T/C was 104% [middle of 8 runs].

**Q.** And the viability, T/C (compound 0.1 µM)?
**A.** The viability, T/C was 104% [middle of 8 runs].

**Q.** What about the viability, T/C (compound 0.316 µM) of the same compound?
**A.** Its viability, T/C is 103% [middle of 8 runs].

**Q.** What about the viability, T/C (compound 1 µM) of the same compound?
**A.** The viability, T/C was 97.5% [middle of 8 runs].

**Q.** What about the viability, T/C (compound 3.16 µM) of the same compound?
**A.** The viability, T/C was 97.1% [middle of 8 runs].

**Q.** And the viability, T/C (compound 10 µM)?
**A.** Its viability, T/C is 90.1% [middle of 8 runs].

**Q.** And the IC50 (compound alone, run of 04/25/2023)?
**A.** Its IC50 is > 10 µM.

**Q.** What does the source list for `CC1(C)CCC(CN2CCN(c3ccc(C(=O)NS(=O)(=O)c4ccc(NCC5CCOCC5)c([N+](=O)[O-])c4)c(Oc4cnc5[nH]ccc5c4)c3)CC2)=C(c2ccc(Cl)cc2)C1`?
**A.** viability, T/C (compound 0.0316 µM): 102% (2×) and 94.5% and 111%; viability, T/C (compound 0.1 µM): 101% (2×) and 96.3% and 98.1%; viability, T/C (compound 0.316 µM): 110% [middle of 4 runs]; viability, T/C (compound 1 µM): 98.5% [middle of 4 runs]; viability, T/C (compound 3.16 µM): 89% [middle of 4 runs]; IC50 (curve of compound): > 10 µM and 4.88 µM and 5.19 µM

**Q.** What does the source list for `CC1(C)CCC(Nc2ncc(C(F)(F)F)c(-c3c[nH]c4c(P(C)(C)=O)c(C#N)ccc34)n2)CN1` (stereo unspecified)?
**A.** viability, T/C (compound 0.0316 µM): 30.3% [middle of 4 runs]; viability, T/C (compound 0.1 µM): 27.1% [middle of 4 runs]; viability, T/C (compound 0.316 µM): 32.2% [middle of 4 runs]; viability, T/C (compound 1 µM): 36.1% [middle of 4 runs]; viability, T/C (compound 3.16 µM): 39.7% (2×) and 40.8% and 38.2%; viability, T/C (compound 10 µM): 5.52% [middle of 4 runs]; IC50 (curve of compound): < 0.0316 µM

**Q.** For `CCCS(=O)(=O)Nc1ccc(F)c(C(=O)c2c[nH]c3ncc(-c4ccc(Cl)cc4)cc23)c1F`, which viability, T/C (compound 0.0316 µM) is on record?
**A.** Its viability, T/C is 103% (2×) and 105% and 102%.

**Q.** What about the viability, T/C (compound 0.1 µM) of the same compound?
**A.** Its viability, T/C is 108% [middle of 4 runs].

**Q.** And the viability, T/C (compound 0.316 µM)?
**A.** Its viability, T/C is 112% [middle of 4 runs].

**Q.** And the viability, T/C (compound 1 µM)?
**A.** Its viability, T/C is 110% [middle of 4 runs].

**Q.** And the viability, T/C (compound 3.16 µM)?
**A.** The viability, T/C was 91.3% [middle of 4 runs].

**Q.** What about the viability, T/C (compound 10 µM) of the same compound?
**A.** The viability, T/C was 0.48% [middle of 4 runs].

**Q.** And the IC50 (curve of compound)?
**A.** Its IC50 is 5.33 µM [middle of 4 runs].
